Patent US5028427A, “"Cephalosporin" compounds” (Beecham Group p.l.c., priority 1987, dated 1991)
Converted amounts (≈) assume the structure as drawn.

Legend:
Assay in all cases: MIC by serial dilution in nutrient agar
Assay type in all cases: cell-based
[1] = test system: Pseudomonas aeruginosa NCTC 10662; conditions: NCTC10662, nutrient agar (Oxoid), 10^4 colony forming units, overnight at 37° C.
Serratia marcescens US32 = conditions: Serratia marcescens US 32, nutrient agar (Oxoid), 10^4 colony forming units, overnight at 37° C.
[2] = test system: Staphylococcus aureus Oxford; conditions: nutrient agar (Oxoid), 10^4 colony forming units, overnight at 37° C.
Enterobacter cloacae P99 = test system: Enterobacter cloacae P99
[3] = test system: Serratia marcescens HCN 3956; conditions: HCN3956, nutrient agar (Oxoid), 10^4 colony forming units, overnight at 37° C.

Row | SMILES | MIC [1] | MIC (Serratia marcescens US32) | MIC [2] | MIC (Enterobacter cloacae P99) | MIC [3]
1 | CCN1CCN(C(=O)NC(C(=O)NC2(NC=O)C(=O)N3C(C(=O)[O-])=C(C[n+]4ccccc4)CSC32)c2ccc(OC(C)=O)c(OC(C)=O)c2)C(=O)C1=O [Compound A, 7β-[D-2-(3,4-diacetoxyphenyl)-2-[(4-ethyl-2,3-dioxopiperazin-1-yl)carbonylamino]acetamido]-7α-formamido-3-(pyridinium)methyl-ceph-3-em-4-carboxylate] | 2 µg/mL (≈ 2.66 µM) | 0.5 µg/mL (≈ 0.665 µM) | 16 µg/mL (≈ 21.3 µM) | 8 µg/mL (≈ 10.6 µM) | 16 µg/mL (≈ 21.3 µM)
2 | CCN1CCN(C(=O)NC(C(=O)NC2(NC=O)C(=O)N3C(C(=O)[O-])=C(C[n+]4ccccc4)CSC32)c2ccc(O)c(O)c2)C(=O)C1=O [Example 1, 7β-[D-2-(3,4-Dihydroxyphenyl)-2-[(4-ethyl-2,3-dioxopiperazin-1-yl)carbonylamino]acetamido]-7α-formamido-3-(pyridinium)methyl-ceph-3-em-4-carboxylate] | 0.5 µg/mL (≈ 0.749 µM) | 0.12 µg/mL (≈ 0.18 µM) | 8 µg/mL (≈ 12 µM) | 2 µg/mL (≈ 3 µM) | 2 µg/mL (≈ 3 µM)
